Like-named read-outs stand apart in the source and are kept apart here.
Experiments:
[1] = system: HIV-1IIIB; assay: qPCR determination of Late-RT, 2-LTR and Alu-LTR in infected C8166 cells; type: cell-based; details: for Late-RT level versus positive control (PC) group: C8166, HIV-1IIIB MOI 0.5, 100 nM ACC017, 4-8 h; for 2-LTR level (nuclear entry): C8166, HIV-1IIIB MOI 0.5, 100 nM ACC017, 8, 12, 24 h; for Alu-LTR level (integrated provirus): C8166, HIV-1IIIB MOI 0.5, 100 nM ACC017, 24 h, nested PCR
[2] = system: HIV-1IIIB; assay: microbe, parasite or virus in culture; details: Human immunodeficiency virus 1, C8166, HIV-1IIIB
[3] = system: NL4-3; assay: microbe, parasite or virus in culture; type: cell-based; details: Human immunodeficiency virus 1, NL43; NL4-3, p24
[4] = system: HIV-1DRACC017; assay: microbe, parasite or virus in culture; type: cell-based; details: for EC50: Human immunodeficiency virus 1, HIV-1DRACC017, p24; for FC (Fold Change) EC50 (HIV-1DRACC017)/EC50 (HIV-1IIIB): p24
[5] = system: NL4-3IN-R263K; assay: microbe, parasite or virus in culture; type: cell-based; details: Human immunodeficiency virus 1
[6] = Cytotoxicity MTT assay in MT4 cells; type: cell-based; details: human
[7] = system: HIV-1KIZ011 (CRF07_BC); assay: microbe, parasite or virus in culture; details: Human immunodeficiency virus 1, PBMC
[8] = Cytotoxicity MTT assay in C8166 cells; type: cell-based; details: human
[9] = system: HIV-1A17; assay: microbe, parasite or virus in culture; details: Human immunodeficiency virus 1, C8166
[10] = Cytotoxicity MTT assay in PBMCs; type: cell-based; details: human, peripheral blood mononuclear cells (PBMCs), PBMC
[11] = system: HIV-1WAN (CRF01_AE); assay: microbe, parasite or virus in culture; details: Human immunodeficiency virus 1, PBMC
[12] = system: HIV-1IIIB; assay: HIV-1IIIB-induced cytopathic effect (syncytia counting) in C8166 cells; details: Human immunodeficiency virus 1, C8166
[13] = system: HIV-1IIIB; assay: microbe, parasite or virus in culture; type: cell-based; details: Human immunodeficiency virus 1, MT4, MTT
[14] = system: HIV-1TC-1 (CRF01_AE); assay: microbe, parasite or virus in culture; details: Human immunodeficiency virus 1, PBMC
[15] = system: pNL4-3gp41(36G) V38A, N42T; details: C8166, p24
[16] = system: HIV-1_4755-5; assay: microbe, parasite or virus in culture; details: Human immunodeficiency virus 1, C8166
[17] = system: HIV-1IIIB; assay: Combined antiviral activity assay (p24 ELISA, CompuSyn); type: cell-based
[18] = p24 (Table 4, resistance study)

Row | SMILES | Late-RT level versus positive control (PC) group [1] | 2-LTR level (nuclear entry) [1] | Alu-LTR level (integrated provirus) [1] | EC50 [2, 18] [nM] | EC50 [3] [nM] | EC50 [4] [nM] | FC (Fold Change) EC50 (HIV-1DRACC017)/EC50 (HIV-1IIIB) [4] | EC50 ([5]; read-out: EC50) [nM] | DRI Value ED75 ([17]; combination DTG + 3TC) | DRI Value ED90 ([17]; combination DTG + 3TC) | DRI Value ED95 ([17]; combination DTG + 3TC) | DRI Value ED75 ([17]; combination DTG + ACC007) | DRI Value ED90 ([17]; combination DTG + ACC007) | DRI Value ED95 ([17]; combination DTG + ACC007) | other results
1 | O=C1Nc2ccc(Cl)cc2[C@@](C#CC2CC2)(C(F)(F)F)O1 [EFV, Efavirenz] | significantly lower than that in the PC group | barely detected | almost undetectable | 0.6 ± 0.18 | 1.51 ± 0.48 | 1.24 ± 0.22 | 2.07 | 1.62 ± 0.31 | – | – | – | – | – | – | –
2 | C[C@@H]1CCO[C@H]2Cn3cc(C(=O)NCc4ccc(F)cc4F)c(=O)c(O)c3C(=O)N12 [DTG, Dolutegravir] | no significant difference compared with the PC group | unable to block the nuclear entry process | significantly reduced | 1.18 ± 0.15 | 2.41 ± 0.43 | > 5000 | – | – | 3.00 | 4.01 | 4.98 | 3.00 | 4.13 | 5.21 | CC50 at 3 d [6]: 24910 ± 10 nM; EC50 [7]: 0.28 ± 0.03 nM; CC50 at 3 d [8]: 20340 ± 70 nM; EC50 [9]: 4.78 ± 5.13 nM; CC50 at 7 d [10]: 14600 nM; EC50 [11]: 8.23 ± 0.2 nM; EC50 [12]: 0.73 ± 0.02 nM; EC50 [13]: 0.05144 ± 0.00014 nM; EC50 ([2]; C8166, p24 (Table 1)): 0.64 ± 0.07 nM; EC50 ([2]; C8166, p24, 20% human serum): 33.6 ± 5.9 nM; EC50 [14]: 0.31 ± 0.18 nM; EC50 [15]: 1.95 ± 0.12 nM; EC50 [16]: 9.96 ± 2.78 nM; DRI Value ED75 ([17]; combination ACC017 + DTG): 1.40; DRI Value ED90 ([17]; combination ACC017 + DTG): 1.40; DRI Value ED95 ([17]; combination ACC017 + DTG): 1.60; DRI Value ED75 ([17]; combination DTG + FTC + TAF): 3.25; DRI Value ED90 ([17]; combination DTG + FTC + TAF): 4.37; DRI Value ED95 ([17]; combination DTG + FTC + TAF): 5.41; EC50 [5]: 32.2 ± 3.74 nM
3 | Nc1ccn([C@@H]2CS[C@H](CO)O2)c(=O)n1 [3TC, Lamivudine] | – | – | – | 181 ± 41.5 | 198 ± 101 | 322 ± 34.6 | 1.78 | 180 ± 38.5 | 5.03 | 6.79 | 8.33 | – | – | – | DRI Value ED75 ([17]; combination ACC017 + 3TC): 6.21; DRI Value ED90 ([17]; combination ACC017 + 3TC): 7.90; DRI Value ED95 ([17]; combination ACC017 + 3TC): 9.30
4 | CCn1c(C(=O)c2cc(C)cc(C#N)c2)c(C(C)C)c(=O)[nH]c1=O [ACC007, Ainuovirine] | – | – | – | – | – | – | – | – | – | – | – | 4.66 | 7.34 | 10.16 | DRI Value ED75 ([17]; combination ACC017 + ACC007): 3.77; DRI Value ED90 ([17]; combination ACC017 + ACC007): 6.12; DRI Value ED95 ([17]; combination ACC017 + ACC007): 8.66

Reference: PMC12846677 (Viruses, 2025)
